Data taken from publication PMC9975351 (Frontiers in Pharmacology, 2023).

Columns and labels:
[1] = Metabolic stability and metabolite formation in pooled human liver microsomes with NADPH and/or UDPGA; assay type: in vitro ADME; settings: human, microsomes, pH 7.4, Half-life
Method: Microsomal incubation was conducted in triplicate using 0.1 M potassium phosphate buffer (PPB, pH 7.4) in eight-well tube strips in an 8 × 12 rack (1.2 mL; VWR, Emeryville, CA, United States). […] The mixture was pre-incubated at 37°C with shaking at approximately 100 rpm for 5 min. UGT glucuronidation was performed with HLMs (1 mg/mL) and alamethicin (25 μg/mg microsomal protein) in a 100-mM PPB (pH 7.4) solution on ice for 15 min. […] CYP, UGT, and combined reactions were initiated by addition of the NADPH regenerating system, UDPGA (1 mM), and both, respectively. […] The incubation mixtures were then centrifuged at 2,000 × g and 4°C for 20 min, and the supernatants were analyzed by LC-QTOF HRMS.
The incubation mixtures were pre-incubated at 37°C in a shaking water bath at approximately 100 rpm for 5 min. Reactions were initiated by the addition of an NADPH-regenerating system. The reaction was terminated, centrifuged then analyzed using the same method described above.
(§1) In the microsomal stability analysis, degradation half-life (t½) values were calculated using the following equation: t½=0.693/k where k is the first-order degradation rate constant, estimated by one-phase exponential-decay non-linear regression of the degradation time-course data using Graph Pad Prism 8.0 (Graph Pad Software Inc., San Diego, CA, United States). In vitro metabolic stability parameters, microsomal intrinsic clearance (CLint,mic), apparent intrinsic clearance (CL′int), and hepatic clearance (CLh), were calculated according to the well-stirred model approach ([Pang and Rowland, 1977]; [Baranczewski et al., 2006]). The apparent kinetic parameters of GRL0617 metabolism were determined by fitting a one-enzyme Michaelis-Menten equation. […] All data are presented as mean ± SD. Data were compared between groups using the unpaired Student’s t-test. The significance level was set at p < 0.05, unless indicated otherwise.

[2] = assay type: physicochemical; settings: human, microsomes, 3 h
Method: (§2) All other generated metabolites area was less than 1% of the parent area/internal standard area. […] HY-17542 underwent deacetylation rapidly in HLM incubated with or without NADPH (Figures 4A, B). The calculated half-lives for NADPH-dependent metabolism and NADPH-independent degradation were 5.26 and 10.83 min, respectively. We incubated HY-17542 without HLM and NADPH to 180 min in the phosphate buffer condition. […] CES 1 or 2 was possible enzyme responsible for the deacetylation. […] HY-17542 metabolites in HLM incubated with NADPH are presented in Figures 4C, D. M1 and M3 were also detected from HY-17542 in a time-dependent manner.

CES1 = target: T1, CES1 (Homo sapiens, UniProt P23141); assay: Incubation with recombinant CES1; assay type: in vitro ADME; settings: 1 µM
T1 construct: purchased Cypex (Dundee, UK)
T1 sequence (P23141 18-567): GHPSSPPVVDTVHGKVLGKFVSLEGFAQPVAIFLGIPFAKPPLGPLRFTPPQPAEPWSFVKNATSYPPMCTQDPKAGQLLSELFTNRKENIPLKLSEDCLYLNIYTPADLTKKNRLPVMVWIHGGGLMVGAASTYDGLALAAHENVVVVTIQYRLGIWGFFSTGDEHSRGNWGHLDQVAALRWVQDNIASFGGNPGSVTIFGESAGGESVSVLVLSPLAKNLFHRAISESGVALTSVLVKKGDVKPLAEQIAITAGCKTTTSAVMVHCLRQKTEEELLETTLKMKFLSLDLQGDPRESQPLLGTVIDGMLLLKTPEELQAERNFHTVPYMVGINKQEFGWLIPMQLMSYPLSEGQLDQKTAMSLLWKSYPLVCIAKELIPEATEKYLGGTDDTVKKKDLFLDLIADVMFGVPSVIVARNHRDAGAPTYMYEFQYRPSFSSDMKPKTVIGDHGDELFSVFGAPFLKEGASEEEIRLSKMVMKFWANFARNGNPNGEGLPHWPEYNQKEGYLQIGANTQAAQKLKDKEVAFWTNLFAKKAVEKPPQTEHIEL
Method: as §2
(§3) FIGURE 4 Metabolic stability of HY-17542 in HLMs. (A) 1 µM of HY-17542 was incubated with HLMs in the presence or absence of NADPH and incubated with recombinant CES 1 or CES2. […] (C) Formation of M1 in the incubation of 1 µM of HY-17542 in HLMs with NADPH. (D) Formation of M3 in the incubation of 1 µM of HY-17542 in HLMs with NADPH. Data are presented as mean ± SD from three independent samples (n = 3). (E) Representative chromatogram of GRL0617 and its metabolites in the presence of a NADPH-generating system from QTOF MS analysis.

CES2 = target: T2, CES2 (Homo sapiens, UniProt O00748); assay: Incubation with recombinant CES2; assay type: in vitro ADME; settings: 1 µM
T2 construct: purchased Cypex (Dundee, UK)
T2 sequence (O00748 27-559): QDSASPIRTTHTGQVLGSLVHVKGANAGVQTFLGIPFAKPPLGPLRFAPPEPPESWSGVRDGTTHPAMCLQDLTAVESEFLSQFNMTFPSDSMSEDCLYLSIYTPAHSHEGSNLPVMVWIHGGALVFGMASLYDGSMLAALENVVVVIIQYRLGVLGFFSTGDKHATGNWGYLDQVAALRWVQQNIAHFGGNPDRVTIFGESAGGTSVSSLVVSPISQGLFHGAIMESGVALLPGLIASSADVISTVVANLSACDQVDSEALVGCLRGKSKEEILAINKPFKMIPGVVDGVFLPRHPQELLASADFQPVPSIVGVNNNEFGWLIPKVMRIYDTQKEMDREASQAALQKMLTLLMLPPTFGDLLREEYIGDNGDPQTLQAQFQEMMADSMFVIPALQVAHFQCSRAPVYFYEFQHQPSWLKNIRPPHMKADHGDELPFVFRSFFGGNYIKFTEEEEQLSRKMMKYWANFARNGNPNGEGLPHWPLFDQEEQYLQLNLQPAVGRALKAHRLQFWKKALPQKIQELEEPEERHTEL
Method: as §2, §3

not read [3] = substrate: Cc1ccc(N)cc1C(=O)N[C@H](C)c1cccc2ccccc12; assay: not read; settings: other: M1 formation, recombinant CYP2D6, 10 min; 95% CI in parentheses; pH 7.4; 37.0 °C
not read [4] = substrate: Cc1ccc(N)cc1C(=O)N[C@H](C)c1cccc2ccccc12; assay: not read; assay type: in vitro ADME, human; settings: other: M1 formation, recombinant CYP3A5, 10 min; 95% CI in parentheses; pH 7.4; 37.0 °C
Method: Reactions were conducted in triplicate using 0.1 M PPB (pH 7.4) in eight-well tube strips in an 8 × 12 rack. […] The mixture was pre-incubated at 37°C with shaking at approximately 100 rpm for 5 min. Reactions were initiated by the addition of the NADPH-regenerating system and quenched with 200 µL ice-cold acetonitrile containing 50 nM CBZ. The samples were centrifuged at 1,000 × g and 4°C for 20 min, and the supernatants were subjected to LC-QTOF HRMS. […] The reaction was incubated, initiated, terminated, centrifuged then analyzed using the same method described above.
as §1, with “Data were compared between groups using the unpaired Student’s t-test. The significance level was set at p < 0.05, unless indicated otherwise.” left out

CC(=O)Nc1ccc(C)c(C(=O)N[C@H](C)c2cccc3ccccc23)c1 [HY-17542, 5-[acetylamino]-2-methyl-N-[(1R)-1-(1-naphthalenyl)ethyl]benzamide]
half-life at 1 µM [1]: 5.26 min | half-life at 1 µM ([1]; NADPH-independent degradation): 10.8 min | Remaining compound [2]: 99.89 ± 7.69% | Effect on HY-17542 concentration (CES1): did not affect HY-17542 concentration | HY-17542 concentration remaining (CES2): 88.01 ± 10.5%

B1: CYP2D6 (Homo sapiens) (protein)
chain: MGLEALVPLAVIVAIFLLLVDLMHRRQRWAARYPPGPLPLPGLGNLLHVDFQNTPYCFDQLRRRFGDVFSLQLAWTPVVVLNGLAAVREALVTHGEDTADRPPVPITQILGFGPRSQGVFLARYGPAWREQRRFSVSTLRNLGLGKKSLEQWVTEEAACLCAAFANHSGRPFRPNGLLDKAVSNVIASLTCGRRFEYDDPRFLRLLDLAQEGLKEESGFLREVLNAVPVLLHIPALAGKVLRFQKAFLTQLDELLTEHRMTWDPAQPPRDLTEAFLAEMEKAKGNPESSFNDENLRIVVADLFSAGMVTTSTTLAWGLLLMILHPDVQRRVQQEIDDVIGQVRRPEMGDQAHMPYTTAVIHEVQRFGDIVPLGVTHMTSRDIEVQGFRIPKGTTLITNLSSVLKDEAVWEKPFRFHPEHFLDAQGHFVKPEAFLPFSAGRRACLGEPLARMELFLFFTSLLQHFSFSVPTGQPRPSHHGVFAFLVSPSPYELCAVPR
Km (not read [3]): 85.1 (69.4–107.8) µM

B2: CYP3A5 (Homo sapiens) (protein)
chain: MDLIPNLAVETWLLLAVSLVLLYLYGTRTHGLFKRLGIPGPTPLPLLGNVLSYRQGLWKFDTECYKKYGKMWGTYEGQLPVLAITDPDVIRTVLVKECYSVFTNRRSLGPVGFMKSAISLAEDEEWKRIRSLLSPTFTSGKLKEMFPIIAQYGDVLVRNLRREAEKGKPVTLKDIFGAYSMDVITGTSFGVNIDSLNNPQDPFVESTKKFLKFGFLDPLFLSIILFPFLTPVFEALNVSLFPKDTINFLSKSVNRMKKSRLNDKQKHRLDFLQLMIDSQNSKETESHKALSDLELAAQSIIFIFAGYETTSSVLSFTLYELATHPDVQQKLQKEIDAVLPNKAPPTYDAVVQMEYLDMVVNETLRLFPVAIRLERTCKKDVEINGVFIPKGSMVVIPTYALHHDPKYWTEPEEFRPERFSKKKDSIDPYIYTPFGTGPRNCIGMRFALMNMKLALIRVLQNFSFKPCKETQIPLKLDTQGLLQPEKPIVLKVDSRDGTLSGE
notes: purchased Cypex (Dundee, UK); host or cells: bactosomes (bacterial membranes)
Km (not read [4]): 8.5 (7.6–9.5) µM
